Assay results taken from ChEMBL document CHEMBL1201862, “PubChem BioAssay data set” (2004).
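96-well plates; 48 h exposure; 5 concentrations. Endpoints by linear interpolation between flanking doses. Not reached: highest tested concentration assigned. GI50 = concentration required for 50% inhibition of growth.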 Active and inactive are the calls of the source. Cut-off read from the data, not from the text of the source: active = GI50 up to about 1.1 µM and inactive = higher.

Assays:
Experiment in all cases: NCI anticancer screen, dose series, 48 h
SK-MEL-2 = system: SK-MEL-2
T47D = system: T47D
MDA-N = system: MDA-N
SN12C = system: SN12C
A498 = system: A498
A549 = system: A549
Malme-3M = system: Malme-3M
MOLT-4 = system: MOLT-4
BT-549 = system: BT-549
K562 = system: K562
NCI-H460 = system: NCI-H460
MCF7 = system: MCF7
SK-OV-3 = system: SK-OV-3
TK-10 = system: TK-10
OVCAR-8 = system: OVCAR-8
NCI/ADR-RES = system: NCI/ADR-RES
NCI-H522 = system: NCI-H522
CCRF-CEM = system: CCRF-CEM
HCT-15 = system: HCT-15
DMS-273 = system: DMS-273

| Structure (SMILES) | GI50 (SK-MEL-2) | GI50 (T47D) | GI50 (MDA-N) | GI50 (SN12C) | GI50 (A498) | GI50 (A549) | GI50 (Malme-3M) | GI50 (MOLT-4) | GI50 (BT-549) | GI50 (K562) | GI50 (NCI-H460) | GI50 (MCF7) | GI50 (SK-OV-3) | GI50 (TK-10) | GI50 (OVCAR-8) | GI50 (NCI/ADR-RES) | GI50 (NCI-H522) | GI50 (CCRF-CEM) | GI50 (HCT-15) | GI50 (DMS-273) |
| --- | --- | --- | --- | --- | --- | --- | --- | --- | --- | --- | --- | --- | --- | --- | --- | --- | --- | --- | --- | --- |
| CN(N=O)C(=O)N[C@H]1C(O)O[C@H](CO)[C@@H](O)[C@@H]1O (stereo not given in full) | 647 µM (inactive) | 611 µM (inactive) | > 750 µM (inactive) | 581 µM (inactive) | 593 µM (inactive) | 571 µM (inactive) | 600 µM (inactive) | 558 µM (inactive) | > 750 µM (inactive) | 498 µM (inactive) | 491 µM (inactive) | 518 µM (inactive) | 571 µM (inactive) | > 750 µM (inactive) | 617 µM (inactive) | 740 µM (inactive) | 578 µM (inactive) | 485 µM (inactive) | 622 µM | 528 µM (inactive) |
| O=C(O)c1ccccc1[Se][Se]c1ccccc1C(=O)O | 44.4 µM (inactive) |  |  | 53 µM (inactive) | 95.7 µM (inactive) | 51.1 µM (inactive) | 47.2 µM (inactive) | 43.8 µM (inactive) |  | > 100 µM (inactive) | 30.8 µM (inactive) |  | 85.5 µM (inactive) | > 100 µM (inactive) | 43.5 µM (inactive) |  | 37.9 µM (inactive) | 56 µM (inactive) | 55.1 µM | 66.1 µM (inactive) |
| N#Cc1c(-c2ccco2)cc(-c2ccc(NCc3nc4ccccc4[nH]3)cc2)nc1N | 20.3 µM (inactive) |  |  | 22.5 µM (inactive) | 25 µM (inactive) | 29.8 µM (inactive) | 24.5 µM (inactive) | 15.3 µM (inactive) |  | 24.3 µM (inactive) | 18.1 µM (inactive) |  | 50.5 µM (inactive) | 26.4 µM (inactive) | 20.4 µM (inactive) |  | 18.8 µM (inactive) | 27.4 µM (inactive) | 23.6 µM | 18 µM (inactive) |
| CC(=O)C1=C(C)NC2C=CC=CN12 (stereo not given) | > 100 µM (inactive) |  |  | > 100 µM (inactive) | > 100 µM (inactive) | > 100 µM (inactive) | > 100 µM (inactive) | > 100 µM (inactive) |  | > 100 µM (inactive) | > 100 µM (inactive) |  | > 100 µM (inactive) | > 100 µM (inactive) | > 100 µM (inactive) |  | > 100 µM (inactive) | > 100 µM (inactive) | > 100 µM | > 100 µM (inactive) |
| COc1ccc2[nH]c3c(c2c1)[C@H](C)C[C@@H]1C(=O)N(c2ccccc2)C(=O)[C@H]31 | 42.7 µM (inactive) |  |  | 27.1 µM (inactive) | 20.6 µM (inactive) | 27.4 µM (inactive) | 26.6 µM (inactive) | 20.6 µM (inactive) |  | 46 µM (inactive) | 26.2 µM (inactive) |  | 20.5 µM (inactive) | 31.3 µM (inactive) | 17.8 µM (inactive) |  | 16.1 µM (inactive) | 32.5 µM (inactive) | 35.2 µM | 37.8 µM (inactive) |
